The assay relates to PAN02 tumors. The text has this:
All experimental use of animals was approved by the institutional animal care and use committee at Massachusetts General Hospital (MGH). All animal procedures abided by Public Health Service Policy on Humane Care of Laboratory Animals guidelines. All mice were bred and maintained MGH animal facility. Wild-type (WT) C57BL/6 mice were originally obtained from the Jackson Laboratory (The Jackson Laboratory, Bar Harbor, Me.) but were bred and maintained in a defined-flora colony. VEGFR1 tyrosine kinase-knockout mice (Flt1^TK−/−) of mixed C57BL/6 and SV129 strain background were originally developed at the University of Tokyo, Japan (Hiratsuka et al. Proc Natl Acad Sci USA (1998)95(16): 9349-54), and subsequently backcrossed to 99.9% C57BL/6 strain background (N10 equivalent) at Massachusetts General Hospital. Strain background was verified by the Jackson Laboratory's Speed Congenic Development Service. Genotyping was performed using polymerase chain reaction (PCR) analysis, as previously described (Hiratsuka et al.). Age-matched animals were used for all experiments. Mice were maintained on a 12-h light-dark cycle in a temperature-controlled barrier facility, with ad libitum access to food and acidified water, unless otherwise specified.
Mice (7-week old) were given either 10% or a 60% fat diet (D12450J and D12492, Research Diets, New Brunswick, N.J.) for 10 weeks, as described in Surwit et al. Metabolism (1995) 44(5):645-51. Body weight was monitored weekly and mice on a high-fat diet were defined as obese if their body weight was greater than 3 SD above the weight of the low fat diet group. At the end of the experiment, animals were weighed and euthanized, and the inguinal, perigonadal, and perineal fat pads were excised and weighed.
Glucose (GTT) and insulin tolerance tests (ITT) were performed after 8 and 9 weeks on the diet, respectively. Male mice were fasted for 16 hours (5pm-9am) for GTT, or 3 hours (9am-12pm) for ITT. Glucose (0.75 mg/g body weight) or insulin (1U/kg body weight) was administered by intraperitoneal (i.p.) injection, and tail blood was sampled at 0, 15, 30, 60, 90, and 120 minutes after administration of glucose/insulin. Blood glucose levels were measured using a Precision Xtra glucose meter (Abbott Diagnostics, Bedford, MA, USA). Glucose tolerance was evaluated calculating the area under the curve (AUC) for each mouse according to the following equation: […]
C57BL/6 VEGFR1(TK)−/− or WT obese and lean mice (after 10 weeks of diets) were used for tumor implantation studies. To induce pancreatic tumors, small (˜1 mm in diameter) chunks from a PAN02 pancreatic tumor source were grafted in the pancreata of obese and lean male mice. To induce breast tumors, 1×10^6 E0771 breast cancer cells were implanted in the mammary fat pad of lean and obese female mice. About 3 weeks after implantation, tumors were removed and tissue was assessed for immune cell infiltration, gene and protein expression of inflammatory, metabolic and major signaling pathway markers. Plasma was also collected and assessed for insulin, IGF-1, glucose and inflammatory markers (see below). Metastatic burden was assessed by counting lung metastasis in the E0771 breast cancer model, and evaluating abdominal wall invasion as well as mesentery metastasis in the PAN02 pancreatic cancer model. For abdominal wall invasion, animals were scored from 0 to 3 based on the extent of invasion: 0=no invasion, 1=less than 3 metastasis, 2=less than 6 metastasis, 3=more than 6 metastasis.
Immediately following excision, tumor tissue was snap frozen and stored in liquid nitrogen until used. Total RNA was extracted and relative gene expression was determined using RT2 Profiler PCR Arrays system (Qiagen) on a Stratagene Mx3000P QPCR System.

The mark [1] stands for this setting: VEGFR-1 inhibition and metformin combined.

On to `CN(C)C(=N)N=C(N)N` [metformin, 3-(diaminomethylidene)-1,1-dimethylguanidine], for which, under setting [1], the “pericyte coverage in tumors” value is given as “increased pericyte coverage”; the “vessel density in tumor and adipose tissue” value is on record as “unaltered vessel density”. Under “combination group”, the tumor cell apoptosis result is given as “increased tumor cell apoptosis” and the tumor cell proliferation result was “decreased proliferation”. Also, the “fraction of perfused vessels” value (combination group compared to control or anti-VEGFR-1 alone) is “significantly higher”. In addition, the “IR/IGF-1 signaling or AMPK/ACC activation” value (obese Flt1TK-/- mice with metformin) was “no changes”. Further, the plasma insulin entry (obese Flt1TK-/- mice, 3 weeks after implantation of PAN02) is “prevented the increased insulin”. The PAN02 tumor weight result (obese mice, VEGFR-1 inhibition and metformin combined) is “at its lowest”. In addition, the “expression of major gluconeogenic genes downregulated by VEGFR-1 inhibition” value (obese tumors) was “restored expression of major gluconeogenic genes”.

For the origin of these results see US20180064662A1 (THE GENERAL HOSPITAL CORPORATION, priority 2015, published 2018).
